Results from patent US11136325B2, “Pyrrolopyrimidine and pyrrolopyridine derivatives” (GALAPAGOS NV, priority 2017, dated 2021).

The compounds below were run on ASK1/2 (phospho-MKK3 in H2O2-stimulated PBMCs) (assay: ASK1/2 cellular assay: phospho-MKK3 in H2O2-stimulated PBMCs, western blot). Settings: PBMC, 0.5 h, 3 mM H2O2, 30 min, read-out: Inhibition (pIC50) (converted).
Type: cell-based
Description: ASK1/2 activity in vitro was assayed by determining the quantity of phospho-MKK3 protein in H2O2-stimulated PBMCs, using western blot method.
• Lymphoprep (Axis-Shield, Cat. No. 1114545) • Ammonium chloride lysate buffer pH 7.4 (10× concentrated): • NH4Cl—final conc. 1.5 M (Kemika, Cat. No. 0137407) • NaHCO3— final conc. 100 mM (Kemika, Cat. No. 1411007) • Na2EDTA—final conc. 10 mM (Sigma Aldrich; Cat. No. E-4884) • RPMI 1640 (Lonza Cat. No. BE12-115F/U1) • FBS (Sigma Cat. No. F7524, heat inactivated 30′/56° C.) • Dimethyl sulfoxide (DMSO) (Sigma, Cat. No. D2650) • Cell lysis buffer (pH 7.4): PBS+1% Triton X-100 (Sigma Aldrich; Cat. No. X100)—10 ml • Phospho-Stop—1 tablet (Sigma, Cat. No. 4693124001) • Protease Inhibitor—1 tablet (Sigma, Cat. No. 4906837001) • Hydrogen peroxide solution 3% w/w (Sigma Aldrich, Cat. No. H-6520) • PBS (Sigma Aldrich, Cat. No. P4417-100TAB) • Microplate, 96 well, pp, v-bottom, clear (Greiner bio-one; Cat. No. 651201) • Tissue culture plate, 6 well, flat bottom with low evaporation lid (Falcon, Cat. No. 353224) • 50 mL falcon tube (TPP, Cat. No. 91050) • Pierce BCA Protein Assay Kit (Thermo Scientific, Cat. No. 23225) • Immulon® Microtiter™ 96-Well Plate 1B (Thermo Scientific, Cat. No. 3355) • Wes 12-230 kDa Master Kit (Protein Simple, Cat. No. PS-MK14) • MKK3 (D4C3) Rabbit mAb (Cell Signaling, Cat. No. 8535) • Phospho-MKK3 (Ser189)/MKK6 (Ser207) (D8E9) Rabbit mAb (Cell Signaling, Cat. No. 12280)
The assay was configured to run using the following conditions: Tested compounds concentration range: 1-0.0014 μM (7 three-fold serial dilutions); H2O2 concentration: 3 mM
To isolate the PBMCs from buffy coat, the buffy coat was diluted 1:1 in PBS, then the dilute buffy-coat (25 mL) was carefully pipetted on top of 20 mL of Lymphoprep in a falcon tube. The tubes were then spun for 35 min at 400×g. The upper plasma layer is then carefully removed leaving the layer containing the MNCs. The layer containing the MNCs is then transferred to a new tube, PBS is added up to a total volume of 50 mL and the tube is then spun for 10 minutes (200×g, 25° C.). The resulting pellet is then resuspended in 2 mL PBS, the washing step was repeated. The final pellets were resuspended in ammonium chloride lysate buffer up to 50 mL, mixed gently and centrifuged for 10 minutes (200×g, 25° C.), resuspended in 2-3 mL of cell medium and diluted up to 50 mL in cell medium. The cell density of a 1/20 dilution in cell medium was determined using an automated cell counter.
10×10^6 PBMCs were seeded per well in 1 mL of RPMI 1640 cell medium supplemented with 10% FBS in 6-well plates. Seven sets of three-fold serial dilutions of compounds in DMSO starting from 1 mM in 96-well v-bottom plate were prepared. The DMSO compound solutions were diluted 100× in the cell medium. 200 μL of 100× diluted compound solution were added per well, control wells contained 200 μL of 1% DMSO prepared in cell medium. 7.5 mM H2O2 in cell medium was prepared and 800 μL was added to each well, except the negative control well to which 800 μL of cell medium was added. The cells were incubated for 30 min at 37° C., 5% CO2, 95% humidity. The cells were transferred to 2 mL Eppendorf tubes and centrifuged for 10 minutes at 300×g at 4° C., they were then washed with 1 mL PBS, the cell pellet was resuspended in 100 μL of lysis buffer and incubated on ice for 30 minutes. After which time the cell lysates were centrifuged for 5 minutes at 10000×g at 4° C. and the supernatants were then stored at −20° C.
Samples were diluted 5× in cell lysis buffer and total protein concentration was determined in 96-well Immulon 1B plate using BCA Protein Assay Kit following manufacturer's instructions.
Western blot assay was performed using Protein Simple Wes Master Kit and device, following manufacturer's instructions. 0.5 mg/mL of total proteins was loaded per sample; phospho-MKK3 and MKK3 antibodies were diluted 300×. […]

In order of falling IC50:
1. Cc1c[nH]c2ncnc(N3CCC(NC(=O)c4cc(N)ncc4Cl)CC3)c12 [Compound 3, 2-amino-5-chloro-N-[1-(5-methyl-7H-pyrrolo[2,3-d]pyrimidin-4-yl)-4-piperidyl]-pyridine-4-carboxamide]  39.8 nM
2. Cc1c[nH]c2ncc(C#N)c(N3CCC(NC(=O)c4cc(N)ncc4F)CC3)c12 [Compound 6, 2-amino-N-[1-(5-cyano-3-methyl-1H-pyrrolo[2,3-b]pyridin-4-yl)-4-piperidyl]-5-fluoro-pyridine-4-carboxamide]  12.6 nM
3. Nc1cc(C(=O)NC2CCN(c3ccnc4[nH]cc(Cl)c34)CC2)c(F)cn1 [Compound 7, 2-amino-N-[1-(3-chloro-1H-pyrrolo[2,3-b]pyridin-4-yl)-4-piperidyl]-5-fluoro-pyridine-4-carboxamide]  12.6 nM
4. Cc1c[nH]c2ncnc(N3CCC(NC(=O)c4cc(N)ncc4F)CC3)c12 [Compound 1, 2-amino-5-fluoro-N-[1-(5-methyl-7H-pyrrolo[2,3-d]pyrimidin-4-yl)-4-piperidyl]pyridine-4-carboxamide]  8.91 nM
5. Nc1cc(C(=O)NC2CCN(c3ncnc4[nH]cc(Cl)c34)CC2)ccn1 [Compound 4, 2-amino-N-[1-(5-chloro-7H-pyrrolo[2,3-d]pyrimidin-4-yl)-4-piperidyl]pyridine-4-carboxamide]  7.94 nM
6. Nc1cc(C(=O)NC2CCN(c3ncnc4[nH]cc(Cl)c34)CC2)c(F)cn1 [Compound 5, 2-amino-N-[1-(5-chloro-7H-pyrrolo[2,3-d]pyrimidin-4-yl)-4-piperidyl]-5-fluoro-pyridine-4-carboxamide]  6.31 nM
7. Cc1cnc(N)cc1C(=O)NC1CCN(c2ncnc3[nH]cc(C)c23)CC1 [Compound 2, 2-amino-5-methyl-N-[1-(5-methyl-7H-pyrrolo[2,3-d]pyrimidin-4-yl)-4-piperidyl]pyridine-4-carboxamide]  3.16 nM
